Like-named read-outs stand apart in the source and are kept apart here.
Columns and labels:
MT4 cytotoxicity (CC50) = settings: human, MT4 cells
[1] = system: Recombinant Respiratory Syncytial virus strain A2 containing the firefly luciferase reporter (RSV-Fluc); assay: microbe, parasite or virus in culture; assay type: cell-based; settings: human respiratory syncytial virus, NHBE
SARS-CoV-2 = assay: microbe, parasite or virus in culture; assay type: cell-based; settings: Severe acute respiratory syndrome coronavirus 2, read-out: SARS EC50
[2] = 72 h, read-out: RSV-Fluc EC50 (NHBE), NHBE cells, three days, Table 2

Compound	CC50 (MT4 cytotoxicity (CC50); MT4 CC50, Table 2a) [nM]	EC50 [1, 2] [nM]	EC50 ([1]; read-out: RSV EC50, Table 2a) [nM]	EC50 (SARS-CoV-2) [nM]	CC50 (MT4 cytotoxicity (CC50); MT4 CC50, Table 4) [nM]	EC50 ([1]; read-out: RSV EC50, Table 4) [nM]
CCCCCCCCCCCCCCCCOC[C@H](COP(=O)(O)OC[C@H]1O[C@@](C#N)(c2ccc3c(N)ncnn23)[C@H](O)[C@@H]1O)OCCCCCCCCCCCCCCCC [Example 61, ((2R,3S,4R,5R)-5-(4-Aminopyrrolo[2,1-f][1,2,4]triazin-7-yl)-5-cyano-3,4-dihydroxytetrahydrofuran-2-yl)methyl ((R)-2,3-bis(hexadecyloxy)propyl) hydrogen phosphate]	50000	4500	4540	10000	–	–
CCCCCCCCCCCCCCCCCCOC[C@H](COP(=O)(O)OC[C@H]1O[C@@](C#N)(c2ccc3c(N)ncnn23)[C@H](O)[C@@H]1O)OCc1cc(F)cc(C(F)(F)F)c1 [Example 19, ((2R,3S,4R,5R)-5-(4-aminopyrrolo[2,1-f][1,2,4]triazin-7-yl)-5-cyano-3,4-dihydroxytetrahydrofuran-2-yl)methyl ((R)-2-((3-fluoro-5-(trifluoromethyl)benzyl)oxy)-3-(octadecyloxy)propyl) hydrogen phosphate]	541	180	182	2800	–	–
CCCCCCCCCCOCCCOP(=O)(O)OC[C@H]1O[C@@](C#N)(c2ccc3c(N)ncnn23)[C@H](O)[C@@H]1O [Example 56, ((2R,3S,4R,5R)-5-(4-Aminopyrrolo[2,1-f][1,2,4]triazin-7-yl)-5-cyano-3,4-dihydroxytetrahydrofuran-2-yl)methyl (3-(decyloxy)propyl) hydrogen phosphate]	50000	5000	5000	10000	–	–
CCCCCCCC/C=C/CCCCCCCCOC[C@H](COP(=O)(O)OC[C@H]1O[C@@](C#N)(c2ccc3c(N)ncnn23)[C@H](O)[C@@H]1O)OCc1ccccc1 [Example 131, ((2R,3S,4R,5R)-5-(4-aminopyrrolo[2,1-f][1,2,4]triazin-7-yl)-5-cyano-3,4-dihydroxytetrahydrofuran-2-yl)methyl ((R)-2-(benzyloxy)-3-(((E)-octadec-9-en-1-yl)oxy)propyl) hydrogen phosphate]	–	–	–	110	3390	39
CCCCCCCCCCCCCCCCCCOC[C@](C)(COP(=O)(O)OC[C@H]1O[C@@](C#N)(c2ccc3c(N)ncnn23)[C@H](O)[C@@H]1O)OCc1ccccc1 [Example 21, ((2R,3S,4R,5R)-5-(4-aminopyrrolo[2,1-f][1,2,4]triazin-7-yl)-5-cyano-3,4-dihydroxytetrahydrofuran-2-yl)methyl ((R)-2-(benzyloxy)-2-methyl-3-(octadecyloxy)propyl) hydrogen phosphate]	50000	76	77	1740	–	–
CCCCCCCCCCCCCCCCCCOC[C@H](COP(=O)(O)OC[C@H]1O[C@@](C#N)(c2ccc3c(N)ncnn23)[C@H](O)[C@@H]1O)OCc1c(F)cccc1F [Example 43, ((2R,3S,4R,5R)-5-(4-aminopyrrolo[2,1-f][1,2,4]triazin-7-yl)-5-cyano-3,4-dihydroxytetrahydrofuran-2-yl)methyl ((R)-2-((2,6-difluorobenzyl)oxy)-3-(octadecyloxy)propyl) hydrogen phosphate]	1470	68	68	139	–	–
CCCCCCCCCCCCCCCCOC[C@H](COP(=O)(O)OC[C@H]1O[C@@](C#N)(c2ccc3c(N)ncnn23)[C@H](O)[C@@H]1O)OCc1cccc(C#N)c1 [Example 95, ((2R,3S,4R,5R)-5-(4-aminopyrrolo[2,1-f][1,2,4]triazin-7-yl)-5-cyano-3,4-dihydroxytetrahydrofuran-2-yl)methyl ((R)-2-((3-cyanobenzyl)oxy)-3-(hexadecyloxy)propyl) hydrogen phosphate]	–	–	–	37	252	20
